# Results published in ChEMBL document CHEMBL3885881, “DrugMatrix”.
# Species on record: Rattus norvegicus
# Assay type: toxicity, organism-based, Sprague-Dawley
# Settings: in vivo, po, route oral GAVAGE, […]; for ABSOLUTE EOSINOPHIL / ABSOLUTE LYMPHOCYTE / ABSOLUTE MONOCYTE / ABSOLUTE SEGMENTED NEUTROPHIL / BASOPHIL / EOSINOPHIL / ERYTHROCYTE COUNT / HEMATOCRIT / HEMOGLOBIN / LEUKOCYTE COUNT / LYMPHOCYTE / MEAN CORPUSCULAR HEMOGLOBIN / MEAN CORPUSCULAR HEMOGLOBIN CONCENTRATION / MEAN CORPUSCULAR VOLUME / MONOCYTE / NEUTROPHIL / NUCLEATED RED BLOOD CELLS / PLATELET COUNT: tissue Blood; for ALANINE AMINOTRANSFERASE / ALKALINE PHOSPHATASE / ASPARTATE AMINOTRANSFERASE / BLOOD UREA NITROGEN / CARBON DIOXIDE / CHLORIDE / CHOLESTEROL / CREATINE PHOSPHOKINASE / CREATININE / GLUCOSE / LACTATE DEHYDROGENASE / LIPASE / PHOSPHORUS / POTASSIUM / SODIUM / TOTAL BILIRUBIN / TOTAL PROTEIN / URIC ACID: tissue Plasma
# [1] = 0 mg/kg, 6 h, vehicle control, dose level Control, time 0.25 day
# [2] = 0 mg/kg, 24 h, vehicle control, dose level Control, time 1 day
# [3] = 100 mg/kg, 6 h, dose level Low, time 0.25 day
# Description: DrugMatrix - Regimen: Single
compound,measurement,setting,value
Cc1ccc(C)c(OCCCC(C)(C)C(=O)O)c1 [GEMFIBROZIL],ABSOLUTE EOSINOPHIL,[1],0 CELLS/uL
same,ABSOLUTE LYMPHOCYTE,[1],8631 CELLS/uL
same,ABSOLUTE MONOCYTE,[1],171.17 CELLS/uL
same,ABSOLUTE SEGMENTED NEUTROPHIL,[1],1214.5 CELLS/uL
same,BASOPHIL,[1],0%
same,EOSINOPHIL,[1],0%
same,ERYTHROCYTE COUNT,[1],5.42 x10E6/uL
same,HEMATOCRIT,[1],34.7%
same,HEMOGLOBIN,[1],13.67 G/DL
same,LEUKOCYTE COUNT,[1],10.02 x10E3/uL
same,LYMPHOCYTE,[1],86.17%
same,MEAN CORPUSCULAR HEMOGLOBIN,[1],25.27 pg
same,MEAN CORPUSCULAR HEMOGLOBIN CONCENTRATION,[1],39.42 G/DL
same,MEAN CORPUSCULAR VOLUME,[1],64.12 fL
same,MONOCYTE,[1],1.67%
same,NEUTROPHIL,[1],12.17%
same,NUCLEATED RED BLOOD CELLS,[1],0 /100WBC
same,PLATELET COUNT,[1],1050 x10E3/uL
same,ALANINE AMINOTRANSFERASE,[1],61 u/L
same,ALKALINE PHOSPHATASE,[1],312.5 u/L
same,ASPARTATE AMINOTRANSFERASE,[1],117.5 u/L
same,BLOOD UREA NITROGEN,[1],8.67 mg/dL
same,CARBON DIOXIDE,[1],26.33 mmol/L
same,CHLORIDE,[1],100.5 MEQ/L
same,CHOLESTEROL,[1],72 mg/dL
same,CREATINE PHOSPHOKINASE,[1],283.33 u/L
same,CREATININE,[1],0.28 mg/dL
same,GLUCOSE,[1],172 mg/dL
same,LACTATE DEHYDROGENASE,[1],95.33 u/L
same,LIPASE,[1],10.17 u/L
same,PHOSPHORUS,[1],9.9 mg/dL
same,POTASSIUM,[1],5.75 MEQ/L
same,SODIUM,[1],142.4 MEQ/L
same,TOTAL BILIRUBIN,[1],0.3 mg/dL
same,TOTAL PROTEIN,[1],5.43 G/DL
same,URIC ACID,[1],0.73 mg/dL
same,ABSOLUTE EOSINOPHIL,[2],90.83 CELLS/uL
same,ABSOLUTE LYMPHOCYTE,[2],14725.17 CELLS/uL
same,ABSOLUTE MONOCYTE,[2],220 CELLS/uL
same,ABSOLUTE SEGMENTED NEUTROPHIL,[2],1080.67 CELLS/uL
same,BASOPHIL,[2],0%
same,EOSINOPHIL,[2],0.67%
same,ERYTHROCYTE COUNT,[2],5.3 x10E6/uL
same,HEMATOCRIT,[2],33.4%
same,HEMOGLOBIN,[2],13.4 G/DL
same,LEUKOCYTE COUNT,[2],16.12 x10E3/uL
same,LYMPHOCYTE,[2],91.17%
same,MEAN CORPUSCULAR HEMOGLOBIN,[2],25.3 pg
same,MEAN CORPUSCULAR HEMOGLOBIN CONCENTRATION,[2],40.12 G/DL
same,MEAN CORPUSCULAR VOLUME,[2],63.05 fL
same,MONOCYTE,[2],1.5%
same,NEUTROPHIL,[2],6.67%
same,NUCLEATED RED BLOOD CELLS,[2],0 /100WBC
same,PLATELET COUNT,[2],1062 x10E3/uL
same,ALANINE AMINOTRANSFERASE,[2],69 u/L
same,ALKALINE PHOSPHATASE,[2],269 u/L
same,ASPARTATE AMINOTRANSFERASE,[2],83.67 u/L
same,BLOOD UREA NITROGEN,[2],14 mg/dL
same,CARBON DIOXIDE,[2],29 mmol/L
same,CHLORIDE,[2],100.83 MEQ/L
same,CHOLESTEROL,[2],66.67 mg/dL
same,CREATINE PHOSPHOKINASE,[2],355 u/L
same,CREATININE,[2],0.18 mg/dL
same,GLUCOSE,[2],161.33 mg/dL
same,LACTATE DEHYDROGENASE,[2],123.33 u/L
same,LIPASE,[2],10.67 u/L
same,PHOSPHORUS,[2],8.83 mg/dL
same,POTASSIUM,[2],6.06 MEQ/L
same,SODIUM,[2],142.45 MEQ/L
same,TOTAL BILIRUBIN,[2],0.2 mg/dL
same,TOTAL PROTEIN,[2],5.72 G/DL
same,URIC ACID,[2],1.27 mg/dL
same,ABSOLUTE EOSINOPHIL,[3],97 CELLS/uL
same,ABSOLUTE LYMPHOCYTE,[3],13743.17 CELLS/uL
same,ABSOLUTE MONOCYTE,[3],354.83 CELLS/uL
same,ABSOLUTE SEGMENTED NEUTROPHIL,[3],1355 CELLS/uL
same,BASOPHIL,[3],0%
same,EOSINOPHIL,[3],0.67%
same,ERYTHROCYTE COUNT,[3],5.46 x10E6/uL
same,HEMATOCRIT,[3],35.92%
same,HEMOGLOBIN,[3],13.93 G/DL
same,LEUKOCYTE COUNT,[3],15.55 x10E3/uL
same,LYMPHOCYTE,[3],88.33%
same,MEAN CORPUSCULAR HEMOGLOBIN,[3],25.62 pg
same,MEAN CORPUSCULAR HEMOGLOBIN CONCENTRATION,[3],38.85 G/DL
same,MEAN CORPUSCULAR VOLUME,[3],65.98 fL
same,MONOCYTE,[3],2.17%
same,NEUTROPHIL,[3],8.83%
same,NUCLEATED RED BLOOD CELLS,[3],0 /100WBC
same,PLATELET COUNT,[3],1082.83 x10E3/uL
same,ALANINE AMINOTRANSFERASE,[3],47.5 u/L
same,ALKALINE PHOSPHATASE,[3],284.67 u/L
same,ASPARTATE AMINOTRANSFERASE,[3],80.83 u/L
same,BLOOD UREA NITROGEN,[3],8 mg/dL
same,CARBON DIOXIDE,[3],26.67 mmol/L
same,CHLORIDE,[3],100.17 MEQ/L
same,CHOLESTEROL,[3],76 mg/dL
same,CREATINE PHOSPHOKINASE,[3],275.33 u/L
same,CREATININE,[3],0.13 mg/dL
same,GLUCOSE,[3],141.33 mg/dL
same,LACTATE DEHYDROGENASE,[3],112.33 u/L
same,LIPASE,[3],11 u/L
same,PHOSPHORUS,[3],11.7 mg/dL
same,POTASSIUM,[3],6.32 MEQ/L
same,SODIUM,[3],141.92 MEQ/L
same,TOTAL BILIRUBIN,[3],0.37 mg/dL
same,TOTAL PROTEIN,[3],5.85 G/DL
same,URIC ACID,[3],1.2 mg/dL
